Entries after “also recorded” stand apart in the source; their conditions may differ.
Key:
Cyp24a1-deficient mice = test: Rescue of impaired fracture healing in Cyp24a1-deficient mice (tibial osteotomy); type: in vivo, mouse; details: for effect on fracture repair: daily subcutaneous injection, 24,25-(OH)2D3 6.7 μg/kg, 1α,25-(OH)2D3 67 ng/kg
Experimental: FIG. 2: rescue of impaired fracture repair in Cyp24a1-deficient mice by treatment with 24,25-(OH)2D3. Osteotomy was performed and animals from each genotype were treated daily with vehicle, 1,25-(OH)2D3 (67 ng/kg) or 24,25-(OH)2D3 (6.7 ug/kg). The fracture callus was harvested at 14 days post-osteotomy and bone volume (BV) and tissue volume (TV) were measured by histomorphometry using the BioQuant Osteo image analysis software. WT, wild-type; cyp24a1−/−, mutant mice deficient for the Cyp24a1 gene.
A Cyp24a1-deficient mouse strain was used to determine the role of 24-hydroxylated vitamin D compounds during mammalian fracture repair. In wild-type mice, there is a significant increase in local expression of Cyp24a1 mRNA in the tibiae subjected to an osteotomy as compared to the unfractured contralateral tibiae. To identify the role of this change in gene expression on callus formation, four-month-old wild-type and Cyp24a1-deficient mice were subjected to a stabilized, transverse mid-diaphysial fracture of the tibia. Bones were collected at days 14 and 21 post-fracture and analyzed for histology and gene expression.
Control groups were injected with the vehicle (propylene glycol). […] Daily injection with 24,25-(OH)2D3 normalized the histological appearance of the callus and the measured static histomorphometric index (BV/TV, FIG. 2).

chickens = details: chick fracture, treatment with metabolite alone; cited from earlier work
[1] = molecular target: T1, 24-hydroxylated vitamin D compound receptor (FAM57B) (Mus musculus, UniProt Q7TNV1); test: [3H]-24,25(OH)2D3 binding assay on membrane fractions of transfected COS-7 cells; details: for displacement of [3H]-24,25(OH)2D3 specific binding by excess cold compound: membrane fractions, excess of nonradioactive competitor; for specific binding of radioligand to receptor (saturation): membrane fractions of COS-7 cells expressing FAM57B
T1 construct: The full-length 24-hydroxylated vitamin D compound receptor was subcloned into the pcDNA3.1 expression vector; expressed in transfected cells; host or cells: COS-7 cells, stably transfected (pcDNA3.1)
T1 sequence (Q7TNV1 1-275 isoform Q7TNV1-3): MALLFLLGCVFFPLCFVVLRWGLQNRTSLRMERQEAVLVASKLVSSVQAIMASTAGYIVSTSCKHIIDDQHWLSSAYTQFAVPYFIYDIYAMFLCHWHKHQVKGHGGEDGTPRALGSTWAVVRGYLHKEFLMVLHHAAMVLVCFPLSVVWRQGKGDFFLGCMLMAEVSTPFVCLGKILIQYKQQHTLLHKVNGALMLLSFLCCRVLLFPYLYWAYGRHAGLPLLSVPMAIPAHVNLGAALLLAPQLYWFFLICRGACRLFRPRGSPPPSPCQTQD
Experimental: Membrane fractions of transfected COS-7 cells are prepared by differential centrifugation (66): cells are homogenized in buffer A (25 mM HEPES, 10 mM NaCl, 1 mM DTT at pH 7.4) and centrifuged at 20,000 g for 10 minutes. The resulting supernatant is then re-centrifuged at 20,000 g for 2×30 minutes. The resulting pellet is resuspended in buffer B (25 mM HEPES, 50 mM NaCl, 5 mM EDTA, 1 mM DTT at pH 7.4) and is used as a membrane fraction for binding assays.
Binding assays are performed on ice for 60 min in buffer B using [^3H]-24R,25(OH)2D3 (50 Ci/mmol; Amersham) in the presence or absence of a 200-fold excess of nonradioactive 24,25(OH)2D3. Bound and free ligand are separated by filtration on glass microfiber filters soaked in buffer B. The filters are rinsed with 10 ml of buffer B and are counted for radioactivity using a scintillation counter (36, 37, 66). Specific binding is then calculated as total binding minus non-specific binding measured in the presence of the excess of nonradioactive ligand.
Saturation binding analysis is performed using 100 μg of membrane fraction and 0.1 to 5 nM of [^3H]-24R,25(OH)2D3 and plotting specific binding as a function of ligand concentration (FIG. 4A). Saturation binding is repeated several times to minimize intra-assay variation and calculate binding affinity with accuracy. Affinity is determined using the saturation binding algorithm of the Prism software (GraphPad Software Inc., LaJolla, Calif.).
Binding specificity is further refined by performing competition binding assays on the membrane fractions with various nonradioactive vitamin D metabolites and other steroids (FIG. 4B). Binding is performed using 1 nM of [^3H]-24R,25(OH)2D3 and 100 μg of membrane fraction. Compete binding is done using 10-200 fold excess of 24,25(OH)2D3 (control displacement curve). Compete binding is also done using 10-200 fold excess of 25(OH)D3, 24S,25(OH)2D3 (the non-natural epimer of 24,25(OH)2D3), 1α(OH)D2, 1α,24(OH)D2, 1,24,25(OH)3D3, as well as dexamethasone, estradiol, and testosterone.

[2] = molecular target: T2, 24-hydroxylated vitamin D compound receptor (Mus musculus, UniProt Q7TNV1); test: Cellular dielectric spectroscopy (CellKey) in COS7 cells stably transfected with the receptor; type: cell-based; details: range of compound concentrations
T2 construct: The full-length 24-hydroxylated vitamin D compound receptor was subcloned into the pcDNA3.1 expression vector; expressed in transfected cells; host or cells: COS-7 cells, stably transfected (pcDNA3.1)
T2 sequence (Q7TNV1 1-275 isoform Q7TNV1-3): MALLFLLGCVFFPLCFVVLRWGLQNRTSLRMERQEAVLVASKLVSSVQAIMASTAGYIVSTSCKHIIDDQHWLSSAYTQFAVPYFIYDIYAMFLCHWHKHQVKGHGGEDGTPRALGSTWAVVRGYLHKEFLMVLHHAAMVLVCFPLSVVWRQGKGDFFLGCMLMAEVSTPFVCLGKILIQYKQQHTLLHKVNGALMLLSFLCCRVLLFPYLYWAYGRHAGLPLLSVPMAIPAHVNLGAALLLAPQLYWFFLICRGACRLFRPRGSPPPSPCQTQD
Experimental: FIG. 4. Binding saturation and specificity of the 24-hydroxylated vitamin D compound receptor. A, B. The full-length 24-hydroxylated vitamin D compound receptor was subcloned into the pcDNA3.1 expression vector and expressed by stable transfection into COST cells. Membrane fractions were prepared by differential centrifugation and binding assays were performed using [^3H]-24,25(OH)2D3 in the presence or absence of an excess of nonradioactive 24,25(OH)2D3. Bound and free ligand were separated by filtration on glass microfiber filters. […] C, D. COS7 cells stably transfected with an expression vector for the 24-hydroxylated vitamin D compound receptor were plated in a cellular dielectric spectroscopy apparatus and changes in bioimpedance (dZiec), representative of binding, were measured over a range of compound concentrations. C. Response to vitamin D compounds. D. Response to steroids.
In certain embodiments of the present invention, cellular dielectric spectroscopy is used to ascertain binding specificity (124). The technology is based on applying electrical current to cells within a microplate format and measuring changes in impedance. […] The plate is installed onto the system to obtain a baseline reading. […]
Another method used to ascertain binding specificity is cellular dielectric spectroscopy (124). […] The plate is installed onto the system to obtain a baseline reading. […]

ATF response element = ATF response element luciferase reporter (Cignal AARE) in receptor-transfected COS7 cells; type: cell-based; details: saturating dose
Experimental: FIG. 5. Activation of the ATF response element following binding of 24,25(OH)2D to the 24-hydroxylated vitamin D compound receptor. COS7 cells stably transfected with an empty expression vector (vector) or with an expression vector for the 24-hydroxyvitamin D compound receptor (24,25(OH)2D rep) were transiently transfected with a reporter construct in which the luciferase reporter is under the control of an ATF response element. Transfected cells were then treated with ethanol (vehicle) or a saturating dose of 24,25(OH)2D. A renilla luciferase constitutive expression vector was co-transfected to assess efficiency of […]. Results (mean±SEM) are expressed as fold-induction over treatment with vehicle.
In certain embodiments of the present invention where the Cignal Finder reporter system is employed, COS-7 cells stably transfected with the 24-hydroxylated vitamin D compound receptor are seeded in 24-well tissue culture plates (Nunc, Roskilde, Denmark) at a density of 20,000 cells per well in growth medium (high-glucose DMEM with HEPES, 10% FBS, and 400 μg/ml of Geneticin). […] The activity of firefly and renilla luciferases are measured sequentially on a Sirius Luminometer (Berthold Detection Systems GmbH, Pforzheim, Germany). The specific luciferase activity is expressed as the ratio of firefly/renilla luciferase activity. […]

wild-type mice = details: cited from earlier work
rats = details: cited from earlier work
rat = rat studies; cited from earlier work

In the case of `C=C1/C(=C\C=C2/CCC[C@]3(C)[C@@H]([C@H](C)CCCC(C)(C)O)CC[C@@H]23)C[C@@H](O)C[C@@H]1O` [1α,25-(OH)2D3, reference compound], the “effect on fracture repair” value (Cyp24a1-deficient mice) is given as “no effect” and the “healing (mechanical properties of healed bones)” value (chickens) is given as “poor healing”.

In the case of `C=C1CC[C@H](O)C/C1=C/C=C1\CCC[C@]2(C)[C@@H]([C@H](C)CC[C@@H](O)C(C)(C)O)CC[C@@H]12` [24,25-(OH)2D3], the “type X collagen mRNA expression” value (Cyp24a1-deficient mice; all time points studied) is reported as “rescued and normalized”, the “histological appearance of the callus” value (Cyp24a1-deficient mice; daily injection 6.7 μg/kg) is reported as “normalized” and the “static histomorphometric index (BV/TV)” value (Cyp24a1-deficient mice; daily injection 6.7 μg/kg, callus at 14 days post-osteotomy) is reported as “normalized”. The “effect on fracture repair” value (Cyp24a1-deficient mice) was “rescue; also recorded: corrected”, the “effect on fracture repair” value (Cyp24a1-deficient mice; listed as 24,25(OH)2D3) was “rescued” and the “displacement of [3H]-24,25(OH)2D3 specific binding by excess cold compound” value [1] was “can be displaced”. For the same molecule, the “changes in bioimpedance (dZiec), representative of binding” value [2] was “specifically binds”, the “changes in bioimpedance (dZiec), representative of binding” value ([2]; listed as 24R,25(OH)2D3) was “binding activity specific” and the “luciferase reporter fold-induction over treatment with vehicle” value (ATF response element) was “statistically significant”.

For `CC(=O)[C@H]1CC[C@H]2[C@@H]3CCC4=CC(=O)CC[C@]4(C)[C@H]3CC[C@]12C` [progesterone], the “displacement of [3H]-24,25(OH)2D3 specific binding by excess cold compound” value [1] was “not”.

For `CC(C)NCC(O)COc1cccc2ccccc12` (centres unmarked) [propranolol], the bone mass (wild-type mice) is given as “increase bone mass” and the bone defects (rats) is given as “repair bone defects”.

With [^3H]-24R,25-(OH)2D3 the “specific binding of radioligand to receptor (saturation)” value [1] was “specific and saturable” and the “specific binding of radioligand to receptor (saturation)” value ([1]; listed as [^3H]-24,25(OH)2D3) was “saturable”.

B1: parathyroid hormone (protein, UniProt P01270 32-115, looked up)
Parathyroid hormone: SVSEIQLMHNLGKHLNSMERVEWLRKKLQDVHNFVALGAPLAPRDAGSQRPRKKEDNVLVESHEKSLGEADKADVNVLTKAKSQ
modifications: Parathyroid hormone
notes: parathyroid hormone administered in rat fracture studies
For B1, the fracture repair (rat) is listed as “improve fracture repair”.

Source: patent US8663934B2, “Cloned transmembrane receptor for 24-hydroxylated vitamin D compounds and uses thereof” (Shriners Hospital for Children, priority 2009, dated 2014)
